Data published in US20230278972A1, “SUBSTITUTED HALOALKYL SULFONANILIDE HERBICIDES” (FMC Corporation, priority 2020, published 2023).

Key:
Format in all cases: in vivo
kochia (Bassia scoparia) [1] = experiment: Test A postemergence, kochia; conditions: Postemergence, 0 to 100 scale (0 no effect, 100 complete control); for Plant response rating, Kochia: 125 g ai/ha; for Kochia plant response rating: 500 g ai/ha, visual injury vs untreated controls after approx. 10 days
Procedure, shortened: (§1)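 Directed soil spray at planting gave the preemergence treatment, while foliar application to one- to two-leaf seedlings (2–10 cm) gave the postemergence one; pots held a loam and sand mixture and chemicals were carried in a non-phytotoxic solvent with surfactant.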

[2] = test system: Foxtail, Giant (giant foxtail, Setaria faberi); experiment: Test A postemergence, Foxtail, Giant; conditions: Postemergence, 0 to 100 scale (0 no effect, 100 complete control); for Plant response rating, Foxtail, Giant: 125 g ai/ha; for Foxtail, Giant plant response rating: 500 g ai/ha, visual injury vs untreated controls after approx. 10 days
Procedure, shortened: as §1

corn (Zea mays) = experiment: Test A postemergence, corn; conditions: Postemergence, 0 to 100 scale (0 no effect, 100 complete control); for Plant response rating, Corn: 125 g ai/ha; for Corn plant response rating: 500 g ai/ha, visual injury vs untreated controls after approx. 10 days
Procedure, shortened: as §1

[3] = test system: ragweed (common ragweed, Ambrosia artemisiifolia); experiment: Test A preemergence, ragweed; conditions: Preemergence; for Ragweed plant response rating: visual injury on 0 to 100 scale (0 no effect, 100 complete control), approximately 10 days; for Plant response rating, Ragweed: 0 to 100 scale (0 no effect, 100 complete control)
Procedure, shortened: as §1

[4] = test system: barnyardgrass (Echinochloa crus-galli); experiment: Test A postemergence, barnyardgrass; conditions: Postemergence, 0 to 100 scale (0 no effect, 100 complete control); for Plant response rating, Barnyardgrass: 125 g ai/ha; for Barnyardgrass plant response rating: 500 g ai/ha, visual injury vs untreated controls after approx. 10 days
Procedure, shortened: (§2)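 Test chemicals, formulated in a non-phytotoxic solvent mixture with surfactant, were sprayed postemergence on plants 2 to 10 cm tall at the one- to two-leaf stage. Preemergence treatment was a directed soil spray onto freshly seeded pots. Both used a loam soil and sand blend.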

[5] = test system: wheat (Triticum aestivum); experiment: Test A postemergence, wheat; conditions: Postemergence, 0 to 100 scale (0 no effect, 100 complete control); for Plant response rating, Wheat: 125 g ai/ha; for Wheat plant response rating: 500 g ai/ha, visual injury vs untreated controls after approx. 10 days
Procedure, shortened: as §2

[6] = test system: pigweed (Amaranthus retroflexus); experiment: Test A preemergence, pigweed; conditions: for Pigweed plant response rating: visual injury on 0 to 100 scale (0 no effect, 100 complete control), approximately 10 days; for Plant response rating, Pigweed: 0 to 100 scale (0 no effect, 100 complete control)
Procedure, shortened: as §2

[7] = test system: Ryegrass, Italian (Italian ryegrass, Lolium multiflorum); experiment: Test A postemergence, Ryegrass, Italian; conditions: Postemergence, 0 to 100 scale (0 no effect, 100 complete control); for Plant response rating, Ryegrass, Italian: 125 g ai/ha; for Ryegrass, Italian plant response rating: 500 g ai/ha, visual injury vs untreated controls after approx. 10 days
Procedure, shortened: as §1

[8] = test system: ragweed (common ragweed, Ambrosia artemisiifolia); experiment: Test A postemergence, ragweed; conditions: Postemergence, 0 to 100 scale (0 no effect, 100 complete control); for Plant response rating, Ragweed: 125 g ai/ha; for Ragweed plant response rating: 500 g ai/ha, visual injury vs untreated controls after approx. 10 days
Procedure, shortened: as §1

kochia (Bassia scoparia) [9] = experiment: Test A preemergence, kochia; conditions: Preemergence; for Kochia plant response rating: visual injury on 0 to 100 scale (0 no effect, 100 complete control), approximately 10 days; for Plant response rating, Kochia: 0 to 100 scale (0 no effect, 100 complete control)
Procedure, shortened: as §1

[10] = test system: barnyardgrass (Echinochloa crus-galli); experiment: Test A preemergence, barnyardgrass; conditions: Preemergence; for Barnyardgrass plant response rating: visual injury on 0 to 100 scale (0 no effect, 100 complete control), approximately 10 days; for Plant response rating, Barnyardgrass: 0 to 100 scale (0 no effect, 100 complete control)
Procedure, shortened: as §1

[11] = test system: blackgrass (Alopecurus myosuroides); experiment: Test A postemergence, blackgrass; conditions: Postemergence, 0 to 100 scale (0 no effect, 100 complete control); for Plant response rating, Blackgrass: 125 g ai/ha; for Blackgrass plant response rating: 500 g ai/ha, visual injury vs untreated controls after approx. 10 days
Procedure, shortened: as §1

[12] = test system: pigweed (Amaranthus retroflexus); experiment: Test A postemergence, pigweed; conditions: Postemergence, 0 to 100 scale (0 no effect, 100 complete control); for Plant response rating, Pigweed: 125 g ai/ha; for Pigweed plant response rating: 500 g ai/ha, visual injury vs untreated controls after approx. 10 days
Procedure, shortened: as §1

[13] = test system: Foxtail, Giant (giant foxtail, Setaria faberi); experiment: Test A preemergence, Foxtail, Giant; conditions: Preemergence; for Foxtail, Giant plant response rating: visual injury on 0 to 100 scale (0 no effect, 100 complete control), approximately 10 days; for Plant response rating, Foxtail, Giant: 0 to 100 scale (0 no effect, 100 complete control)
Procedure, shortened: as §1

[14] = test system: Ryegrass, Italian (Italian ryegrass, Lolium multiflorum); experiment: Test A preemergence, Ryegrass, Italian; conditions: Preemergence; for Ryegrass, Italian plant response rating: visual injury on 0 to 100 scale (0 no effect, 100 complete control), approximately 10 days; for Plant response rating, Ryegrass, Italian: 0 to 100 scale (0 no effect, 100 complete control)
Procedure, shortened: as §1

[15] = test system: galium (catchweed bedstraw, Galium aparine); experiment: Test A postemergence, galium; conditions: Postemergence, 0 to 100 scale (0 no effect, 100 complete control); for Plant response rating, Galium: 125 g ai/ha; for Galium plant response rating: 500 g ai/ha, visual injury vs untreated controls after approx. 10 days
Procedure, shortened: as §2

[16] = 125 g ai/ha, visual injury, approx. 10 days

Row | SMILES | Plant response rating, Kochia (kochia (Bassia scoparia) [1]; visual injury approx. 10 days) | Kochia plant response rating (kochia (Bassia scoparia) [1]) | Plant response rating, Foxtail, Giant ([2]; visual injury approx. 10 days) | Foxtail, Giant plant response rating [2] | Plant response rating, Corn (corn (Zea mays); visual injury approx. 10 days) | Corn plant response rating (corn (Zea mays)) | Ragweed plant response rating ([3]; 125 g ai/ha) | Plant response rating, Ragweed ([3]; 500 g ai/ha) | Barnyardgrass plant response rating [4] | Wheat plant response rating [5] | Plant response rating, Pigweed ([6]; 500 g ai/ha) | Ryegrass, Italian plant response rating [7] | Ragweed plant response rating [8] | Plant response rating, Kochia (kochia (Bassia scoparia) [9]; 500 g ai/ha) | Plant response rating, Barnyardgrass ([10]; 500 g ai/ha) | Blackgrass plant response rating [11] | Pigweed plant response rating [12] | Plant response rating, Foxtail, Giant ([13]; 500 g ai/ha) | Plant response rating, Ryegrass, Italian ([14]; 500 g ai/ha) | Galium plant response rating [15] | other results
1 | Cc1cc(C)c(C2=NOC3CCCCC23)cc1NS(=O)(=O)C(F)(F)F (racemic) [Compound 125] | 70 | 80 | 20 | 50 | 0 | 60 | 60 | 80 | 90 | 70 | 100 | 70 | 80 | 100 | 100 | 60 | 90 | 100 | 100 | 90 | Plant response rating, Barnyardgrass ([4]; visual injury approx. 10 days): 80; Plant response rating, Wheat ([5]; visual injury approx. 10 days): 30; Pigweed plant response rating ([6]; 125 g ai/ha): 100; Plant response rating, Ryegrass, Italian ([7]; visual injury approx. 10 days): 0; Plant response rating, Ragweed ([8]; visual injury approx. 10 days): 60; Kochia plant response rating (kochia (Bassia scoparia) [9]; 125 g ai/ha): 90; Barnyardgrass plant response rating ([10]; 125 g ai/ha): 100; Plant response rating, Blackgrass ([11]; visual injury approx. 10 days): 10; Plant response rating, Pigweed ([12]; visual injury approx. 10 days): 60; Foxtail, Giant plant response rating ([13]; 125 g ai/ha): 100; Ryegrass, Italian plant response rating ([14]; 125 g ai/ha): 100; Plant response rating, Galium ([15]; visual injury approx. 10 days): 90
2 | CCn1nc(Cl)cc(-c2cc(N(S(C)(=O)=O)S(=O)(=O)C(F)(F)F)c(C)cc2C)c1=O [Compound 45] | 10 | 50 | 0 | 60 | 10 | 30 | 60 | 80 | 70 | 70 | 90 | 90 | 70 | 100 | 100 | 60 | 70 | 100 | 100 | 40 | Plant response rating, Barnyardgrass ([4]; visual injury approx. 10 days): 20; Plant response rating, Wheat ([5]; visual injury approx. 10 days): 40; Pigweed plant response rating ([6]; 125 g ai/ha): 60; Plant response rating, Ryegrass, Italian ([7]; visual injury approx. 10 days): 50; Plant response rating, Ragweed ([8]; visual injury approx. 10 days): 20; Kochia plant response rating (kochia (Bassia scoparia) [9]; 125 g ai/ha): 70; Barnyardgrass plant response rating ([10]; 125 g ai/ha): 90; Plant response rating, Blackgrass ([11]; visual injury approx. 10 days): 0; Plant response rating, Pigweed ([12]; visual injury approx. 10 days): 30; Foxtail, Giant plant response rating ([13]; 125 g ai/ha): 100; Ryegrass, Italian plant response rating ([14]; 125 g ai/ha): 80; Plant response rating, Galium ([15]; visual injury approx. 10 days): 10
3 | Cc1cc(Cl)c(NS(=O)(=O)C(F)(F)F)cc1C1=NOC2(CCCC2)C1 [Compound 204] |  | 70 |  | 60 |  | 50 |  | 90 | 80 | 70 | 100 | 50 | 80 | 90 | 90 | 40 | 70 | 100 | 100 | 80 | Plant response rating, Kochia (kochia (Bassia scoparia) [1]): 30; Plant response rating, Foxtail, Giant [2]: 10; Plant response rating, Corn (corn (Zea mays)): 10; Plant response rating, Ragweed [3, 16]: 10; Plant response rating, Barnyardgrass [4]: 0; Plant response rating, Wheat [5]: 50; Plant response rating, Pigweed [6, 16]: 90; Plant response rating, Ryegrass, Italian [7]: 40; Plant response rating, Ragweed [8]: 20; Plant response rating, Kochia (kochia (Bassia scoparia) [9]; [16]): 40; Plant response rating, Barnyardgrass [10, 16]: 90; Plant response rating, Blackgrass [11]: 0; Plant response rating, Pigweed [12]: 20; Plant response rating, Foxtail, Giant [13, 16]: 80; Plant response rating, Ryegrass, Italian [14, 16]: 90; Plant response rating, Galium [15]: 50
